{"source": "paper PMC9132982", "about": "“Inhibitory role of proguanil on the growth of bladder cancer via enhancing EGFR degradation and inhibiting its downstream signaling pathway to induce autophagy” (Cell Death & Disease, 2022)", "target": "epidermal growth factor receptor (EGFR) (Homo sapiens, UniProt P00533)", "sequence (P00533 25-1210)": "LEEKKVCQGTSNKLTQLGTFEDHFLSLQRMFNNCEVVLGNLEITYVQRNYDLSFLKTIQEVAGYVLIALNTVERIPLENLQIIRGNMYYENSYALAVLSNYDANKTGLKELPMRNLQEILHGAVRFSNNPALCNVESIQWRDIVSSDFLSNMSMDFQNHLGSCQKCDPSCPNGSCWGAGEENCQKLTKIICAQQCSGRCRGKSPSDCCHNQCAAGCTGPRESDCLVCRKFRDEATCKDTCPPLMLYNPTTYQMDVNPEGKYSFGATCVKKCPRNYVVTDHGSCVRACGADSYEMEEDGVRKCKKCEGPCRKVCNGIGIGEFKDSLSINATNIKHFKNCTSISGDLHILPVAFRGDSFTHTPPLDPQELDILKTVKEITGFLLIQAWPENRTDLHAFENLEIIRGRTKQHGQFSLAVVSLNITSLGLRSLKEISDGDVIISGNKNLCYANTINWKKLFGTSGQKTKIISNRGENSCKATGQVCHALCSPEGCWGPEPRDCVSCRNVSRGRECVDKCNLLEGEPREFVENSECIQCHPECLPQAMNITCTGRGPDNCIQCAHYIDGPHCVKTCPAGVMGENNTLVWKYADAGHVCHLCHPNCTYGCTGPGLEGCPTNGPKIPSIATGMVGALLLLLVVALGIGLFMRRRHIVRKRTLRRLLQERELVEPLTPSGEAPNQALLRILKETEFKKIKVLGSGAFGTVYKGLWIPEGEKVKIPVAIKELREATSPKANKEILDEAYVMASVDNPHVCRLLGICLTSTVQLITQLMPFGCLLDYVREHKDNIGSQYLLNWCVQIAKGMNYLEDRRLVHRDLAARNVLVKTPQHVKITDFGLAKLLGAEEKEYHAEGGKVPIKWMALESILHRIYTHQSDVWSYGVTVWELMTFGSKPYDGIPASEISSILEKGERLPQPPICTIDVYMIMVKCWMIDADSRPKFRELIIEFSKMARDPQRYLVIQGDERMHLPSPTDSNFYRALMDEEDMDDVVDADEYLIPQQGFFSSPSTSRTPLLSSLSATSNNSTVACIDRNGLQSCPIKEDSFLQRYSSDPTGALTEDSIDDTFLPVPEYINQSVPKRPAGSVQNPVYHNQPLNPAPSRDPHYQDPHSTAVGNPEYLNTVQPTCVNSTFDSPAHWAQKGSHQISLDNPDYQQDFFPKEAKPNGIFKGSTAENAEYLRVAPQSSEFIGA", "assay": "SPRi with photo-crosslinked immobilized proguanil capturing proteins from T24 cell lysate, identified by LC-MS; no Kd", "format": "cell-based"}
{"smiles": "[H]/N=C(\\N/C(=N/[H])Nc1ccc(Cl)cc1)NC(C)C", "note": "[proguanil]", "values": [{"measurement": "SPRi with photo-crosslinked immobilized proguanil capturing proteins from T24 ce", "value": "surface plasmon resonance imaging (SPRi) experiments and found that proguanil strongly binds to EGFR (Fig. 1A)"}]}
